# In ChEMBL document CHEMBL1132886, “Syntheses and properties of photoactivatable sugar derivatives designed to probe the sugar-binding site of melibiose permease” (Bioorg Med Chem Lett, 2000):
# What was measured:
# [1] = Binding affinity against melibiose permease ofEscherichia coli; parameters: species or system Escherichia coli
# [2] = Binding affinity against melibiose permease of Escherichia coli
Structure (SMILES),Kd [1] [nM],Kd [2] [nM]
[N-]=[N+]=Nc1ccc(OC2O[C@H](CO)[C@@H](O)[C@H](O)[C@H]2O)cc1 (some centres undefined),1000,
O=[N+]([O-])c1ccc(O[C@H]2O[C@H](CO)[C@@H](O)[C@H](O)[C@H]2O)cc1,,600
N#[N+]c1ccc(OC2O[C@H](CO)[C@@H](O)[C@H](O)[C@H]2O)cc1 (some centres undefined),60000,
OC[C@H]1OC(Oc2ccc(C3(C(F)(F)F)N=N3)cc2)[C@H](O)[C@@H](O)[C@@H]1O (some centres undefined),2000,
